# How the values were obtained:
# [1] = test system: intestinal polyps; assay: mouse model of adenomatous polyposis, prevention and treatment of intestinal polyps; type: in vivo; conditions: COX 125 ppm in feed ad libitum, HDAI 10 mg/kg i.v. 3x/wk for three weeks
# Protocol: 5-methyl-2-(2′-chloro-6′-fluoro-anilino)-phenyl acetic acid (alternatively named [2-(2′-chloro-6′-fluoro-phenylamino)-5-methyl-phenyl]acetic acid; for the preparation see Example 1) (“COX”) and N-hydroxy-3-[4-[[(2-hydroxyethyl)[2-(1H-indol-3-yl)ethyl]-amino]methyl]phenyl]-2E-2-propenamide (alternatively named (E)-N-Hydroxy-3-[4-({(2-hydroxy-ethyl)-[2-(1H-indol-3-yl)-ethyl]-amino}-methyl)-phenyl]-acrylamide; for the preparation see Example 3) (“HDAI”) are tested as single agents and together as combination therapy in a mouse model of adenomatous polyposis for the prevention and treatment of intestinal polyps. HDAI is administered intravenously to the mice at 10 mg/kg in a 5% (w/v) dextrose in water solution, q.d., 3 times per week for three weeks. COX is administered as a dietary admixture at a concentration of 125 ppm. % T/C is the quotient of the mean number of polyps in the treated mice divided by the mean number of polyps in the control mice times 100. The following results of duplicate experiments are observed:
# Both agents alone cause a statistically significant reduction in the number of newly formed intestinal polyps. […] Statistical evaluations are performed using a one tailed Student t-test and all p values are less than 0.01.
# [2] = body weight change and deaths in the mouse model of adenomatous polyposis; type: in vivo; conditions: COX 125 ppm in feed ad libitum, HDAI 10 mg/kg i.v. 3x/wk for three weeks
# Protocol: 5-methyl-2-(2′-chloro-6′-fluoro-anilino)-phenyl acetic acid (alternatively named [2-(2′-chloro-6′-fluoro-phenylamino)-5-methyl-phenyl]acetic acid; for the preparation see Example 1) (“COX”) and N-hydroxy-3-[4-[[(2-hydroxyethyl)[2-(1H-indol-3-yl)ethyl]-amino]methyl]phenyl]-2E-2-propenamide (alternatively named (E)-N-Hydroxy-3-[4-({(2-hydroxy-ethyl)-[2-(1H-indol-3-yl)-ethyl]-amino}-methyl)-phenyl]-acrylamide; for the preparation see Example 3) (“HDAI”) are tested as single agents and together as combination therapy in a mouse model of adenomatous polyposis for the prevention and treatment of intestinal polyps. HDAI is administered intravenously to the mice at 10 mg/kg in a 5% (w/v) dextrose in water solution, q.d., 3 times per week for three weeks. COX is administered as a dietary admixture at a concentration of 125 ppm. % T/C is the quotient of the mean number of polyps in the treated mice divided by the mean number of polyps in the control mice times 100. The following results of duplicate experiments are observed: […]
# [3] = second of duplicate experiments
SMILES,% T/C (mean number of polyps treated / control x 100) ([1]; first of duplicate experiments) [%],Mean Intestinal Polyp Count (# ± SEM) ([1]; first of duplicate experiments),"% T/C (mean number of polyps treated / control x 100) [1, 3] [%]","Mean Intestinal Polyp Count (# ± SEM) [1, 3]",% Body Wt. Change ([2]; first of duplicate experiments),Dead/Total animals ([2]; first of duplicate experiments),"% Body Wt. Change [2, 3]","Dead/Total animals [2, 3]"
"Cc1ccc(Nc2c(F)cccc2Cl)c(CC(=O)O)c1 [COX, 5-methyl-2-(2′-chloro-6′-fluoro-anilino)-phenyl acetic acid]",60,14 ± 0.7 #,46,12 ± 0.3 #,+10 ± 0.1%,0/7,+8.1 ± 0.2%,0/7
"O=C(/C=C/c1ccc(CN(CCO)CCc2c[nH]c3ccccc23)cc1)NO [HDAI, N-hydroxy-3-[4-[[(2-hydroxyethyl)[2-(1H-indol-3-yl)ethyl]-amino]methyl]phenyl]-2E-2-propenamide]",52,12 ± 0.57 #,57,15 ± 0.3 #,+3.5 ± 0.1%,0/7,+9.6 ± 0.1%,0/7
